Results on 7 compounds are retold here after patent publication US20250134828A1, “MOLECULAR SOLID SUSPENSIONS FOR TRANSDERMAL DRUG DELIVERY” (Starton Therapeutics, Inc., priority 2023, published 2025).

SMILES strings stand for the structures. Where two headings read alike, the source gives them in different places.

For data set [1] the following is noted: cited from earlier work; for Water Sol: Table 2.
The nature of data set [2]: In vitro permeation (flux) test, modified Franz vertical diffusion cell, Strat-M synthetic membrane. Format: in vitro ADME. As to the method: For in vitro permeation testing, the prepared transdermal formulations in the following examples were subjected to a flux (in vitro permeation) test as follows with either full-split thickness human cadaver skin or Strat-M® synthetic membrane. The full-split thickness human cadaver skin is prepared by thawing at room temperature in DI water, after which it is placed into a 55° C. water bath for a few minutes. After removal from elevated temperature water bath, the stratum corneum layer is removed, inspected, blotted, and cut into suitable sized samples for placement on a modified Franz vertical diffusion cell. Meanwhile, the Strat-M® synthetic membrane is utilized as instructed by the Millipore-Sigma instruction guide on its use. The patches are die cut to a 5/16″ diameter (˜0.5 cm^2) and affixed to the skin with use of an overlay to secure patch to skin. Receiver media is either standard saline (0.9% NaCl in DI water) or a fixed concentration (1%-5%) of povidone in DI Water. Sample volume is 5 mL, Franz cell volume is 5 mL. […] Actual patch size is 0.5 cm^2 with an effective flux area of about 0.6 cm^2. Aliquots taken are analyzed by HPLC method for each independent API. Typically, 3-5 replicates per formulation are performed to ensure adequate statistical significance is obtained for each study.

Data set [3] is classed as in vitro ADME.
Data set [4] can be described thus: Drug product stability: potency and degradation products by relative retention time, liquid chromatography. Format: physicochemical. The conditions noted are these: with panthenol and/or other humectants; long term stability studies at room temperature and above 40° C. From the text:
In Example 9, the effect of the incorporation of a humectant (e.g., panthenol) into the molecular solid suspension on the API stability and permeability is shown. […] In the tables below, TDS-009 includes 8 wt. % LLD, 5 wt. % Panthenol, 10% Poloxamer P407, 5 wt. % crospovidone and 22.5 wt. % Brij L4 in the presence of 49.5 wt. % DuroTak 87-4098 acrylic PSA, while TDS-011 is the same as TDS-009 without presence of 5 wt. % Panthenol, making up for the 5 wt. % difference with additional DuroTak 87-4098 acrylic PSA for a total of 54.5 wt. %.
Generally, the incorporation of panthenol into the molecular solid suspension results in a 10-fold reduction in hydrolytic degradation.
Each of the above formulations was protected from light, but not from ambient storage conditions of about 21° C. and ambient relative humidity.

In the case of `Clc1cccc(Cl)c1N=C1NCCN1` [Clonidine], in data set [1], the “Water Sol” value is reported as around 1 mg/mL.
As for `C#C[C@]1(O)CC[C@H]2[C@@H]3CCc4cc(O)ccc4[C@H]3CC[C@@]21C` [Ethinyl Estradiol], the “Water Sol” value in data set [1] is on record as around 0.1 mg/mL.
As for `CN1C2CCCC1CC(NC(=O)c1nn(C)c3ccccc13)C2` (centres unmarked) [Granisetron], in data set [1], the “Water Sol” value was around 40 mg/mL and the water solubility entry was “less than 0.1 mg/mL”.
Turning to `C[C@@H]1C[C@H]2[C@@H]3CCC4=CC(=O)C=C[C@]4(C)[C@@]3(F)[C@@H](O)C[C@]2(C)[C@@]1(O)C(=O)CO` [dexamethasone], in data set [2] (5 wt. % dexamethasone, 5 wt. % Kollidon CLM, 20 wt. % Laureth-4, 70 wt. % Durotak 87-4098 vs comparators, FIGS. 9-10), the “increase in slope (average flux and cumulative flux)” value is given as “almost an infinite increase”.
In the case of `O=C1CC[C@H](N2Cc3c(OCc4ccc(CN5CCOCC5)cc4)cccc3C2=O)C(=O)N1` [iberdomide], the water solubility result in data set [1] is “less than 2 mg/mL”.
Consider `Nc1cccc2c1CN(C1CCC(=O)NC1=O)C2=O` (centres unmarked) [lenalidomide], for which the observed flux rate in data set [2] (4 wt. % drug formulation, FIGS. 13-14) was found to be 2.4 μg/cm^2/hr. In addition, the average flux rate in data set [2] (6 wt. % lenalidomide without panthenol, FIGS. 13-14) is recorded as 4.2 μg/cm^2/hr; in data set [2] (6 wt. % lenalidomide without panthenol, FIGS. 15-16), 5.1 μg/cm^2/hr; in data set [2] (6 wt. % lenalidomide, 5 wt. % panthenol, after about the 8 hour time point, FIGS. 13-14), 5.4 μg/cm^2/hr; in data set [2] (6 wt. % lenalidomide, 5 wt. % panthenol, after about the 8 hour time point, FIGS. 15-16) it was 7.5 μg/cm^2/hr; in data set [2] (10 wt. % lenalidomide without panthenol, FIGS. 11-12) it was 3.4 μg/cm^2/hr; in data set [2] (10 wt. % lenalidomide, 5 wt. % panthenol, after about the 8 hour time point, FIGS. 11-12), 4.7 μg/cm^2/hr. For the same compound, the “overall permeation relative to same formulation excluding panthenol” value in data set [2] (6 wt. % lenalidomide, 5 wt. % panthenol, FIGS. 13-14) is reported as “about 1.2 times”; in data set [2] (6 wt. % lenalidomide, 5 wt. % panthenol, FIGS. 15-16) it was “about 1.5 times”; in data set [2] (10 wt. % lenalidomide, 5 wt. % panthenol, FIGS. 11-12), “about 1.4 times”. Also, the average flux result is “increased” in data set [2] (HLB below 12 surfactants (O3, O5) with poloxamer P407 vs without poloxamer, FIG. 21); “about 6 μg/cm^2/hr” in data set [2] (at 24 hours, with both humectant and high HLB nonionic surfactant (panthenol and P407), low HLB surfactant O3, FIG. 17); “significantly higher” in data set [2] (formulations with greater than about 15 wt. % O3 vs about 15 wt. % or less, FIG. 19); “significantly higher” in data set [3] (formulations with greater than about 15 wt. % O3 vs about 15 wt. % or less, FIG. 18); “increased” in data set [3] (nonionic surfactants with HLB below 12 (O3, O5) vs HLB above 12 (O10, O20), FIG. 20). Besides, the hydrolytic degradation entry in data set [4] is “inhibits hydrolytic degradation”.
On to `Cc1cc2c(s1)Nc1ccccc1N=C2N1CCN(C)CC1` [olanzapine, 2-methyl-10-(4-methyl-1-piperazinyl)-4H-thieno-[2,3-b][1,5]benzo-diazepine], for which the depletion in data set [2] (5 wt. % olanzapine molecular solid suspension with Laureth-4, after about 24 hours) is recorded as 100%; in data set [2] (other two olanzapine formulations (no Laureth-4), over 72 hours), 60%. In data set [2] (5 wt. % olanzapine molecular solid suspension with Laureth-4 vs comparators, FIG. 3), the “increase in availability (average flux) at about 8-hour time point” value is listed as “about 16 ×”. Further, in data set [2] (5 wt. % olanzapine, 5 wt. % Kollidon CLM, 20 wt. % Laureth-4, 70 wt. % Durotak 87-4098 vs formulations without Laureth-4, FIG. 4), the “increase in slope for cumulative flux” value is “approximately 1.2 ×”.
